Results as given in ChEMBL document CHEMBL5046271, “Design, Synthesis, and Biological Evaluation of 2-Formyl Tetrahydronaphthyridine Urea Derivatives as New Selective Covalently Reversible FGFR4 Inhibitors” (J Med Chem, 2022).

Tests used:
[1] = target: Fibroblast growth factor receptor 1 (Homo sapiens, UniProt P11362); test: Inhibition of FGFR1 (unknown origin) using Tyr 04 peptide substrate measured after 2 hrs by FRET assay
[2] = target: Fibroblast growth factor receptor 2 (Homo sapiens, UniProt P21802); test: Inhibition of FGFR2 (unknown origin) using Tyr 04 peptide substrate measured after 2 hrs by FRET assay
[3] = target: Fibroblast growth factor receptor 3 (Homo sapiens, UniProt P22607); test: Inhibition of FGFR3 (unknown origin) using Tyr 04 peptide substrate measured after 2 hrs by FRET assay
Hep 3B2 = test: Cytotoxicity against human Hep 3B2.1-7 cells harboring FGF19/FGFR4 assessed as inhibition of cell growth; settings: Hep3B
MDA-MB-453 = test: Cytotoxicity against human MDA-MB-453 cells harboring FGF19/FGFR4 assessed as inhibition of cell growth
NCI-H1581 = test: Cytotoxicity against human NCI-H1581 cells harboring FGF19/FGFR4 assessed as inhibition of cell growth
Huh-7 = test: Cytotoxicity against human Huh-7 cells harboring FGF19/FGFR4 assessed as inhibition of cell growth

Sequence of Fibroblast growth factor receptor 2 (P21802 whole entry): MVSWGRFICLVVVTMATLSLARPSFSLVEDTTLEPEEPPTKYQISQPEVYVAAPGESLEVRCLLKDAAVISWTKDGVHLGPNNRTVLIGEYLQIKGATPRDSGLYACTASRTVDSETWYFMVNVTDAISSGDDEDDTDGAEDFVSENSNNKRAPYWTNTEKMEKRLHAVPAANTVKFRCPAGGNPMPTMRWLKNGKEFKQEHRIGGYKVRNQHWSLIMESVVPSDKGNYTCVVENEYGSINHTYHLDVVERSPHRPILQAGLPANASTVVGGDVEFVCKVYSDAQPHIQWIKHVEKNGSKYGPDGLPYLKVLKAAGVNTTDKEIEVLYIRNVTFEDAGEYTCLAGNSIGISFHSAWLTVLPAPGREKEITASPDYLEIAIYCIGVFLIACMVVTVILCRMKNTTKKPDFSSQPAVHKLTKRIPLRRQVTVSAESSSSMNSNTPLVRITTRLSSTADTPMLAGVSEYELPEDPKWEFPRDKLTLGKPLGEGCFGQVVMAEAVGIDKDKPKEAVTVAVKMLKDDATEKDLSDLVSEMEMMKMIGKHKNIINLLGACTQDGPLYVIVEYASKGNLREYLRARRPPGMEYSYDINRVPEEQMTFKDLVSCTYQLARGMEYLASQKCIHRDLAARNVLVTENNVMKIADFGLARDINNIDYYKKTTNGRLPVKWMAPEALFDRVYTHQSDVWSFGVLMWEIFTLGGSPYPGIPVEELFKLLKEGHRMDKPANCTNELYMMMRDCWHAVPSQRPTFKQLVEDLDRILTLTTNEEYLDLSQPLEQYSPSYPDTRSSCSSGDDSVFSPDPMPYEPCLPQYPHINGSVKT
Sequence of Fibroblast growth factor receptor 3 (P22607 whole entry): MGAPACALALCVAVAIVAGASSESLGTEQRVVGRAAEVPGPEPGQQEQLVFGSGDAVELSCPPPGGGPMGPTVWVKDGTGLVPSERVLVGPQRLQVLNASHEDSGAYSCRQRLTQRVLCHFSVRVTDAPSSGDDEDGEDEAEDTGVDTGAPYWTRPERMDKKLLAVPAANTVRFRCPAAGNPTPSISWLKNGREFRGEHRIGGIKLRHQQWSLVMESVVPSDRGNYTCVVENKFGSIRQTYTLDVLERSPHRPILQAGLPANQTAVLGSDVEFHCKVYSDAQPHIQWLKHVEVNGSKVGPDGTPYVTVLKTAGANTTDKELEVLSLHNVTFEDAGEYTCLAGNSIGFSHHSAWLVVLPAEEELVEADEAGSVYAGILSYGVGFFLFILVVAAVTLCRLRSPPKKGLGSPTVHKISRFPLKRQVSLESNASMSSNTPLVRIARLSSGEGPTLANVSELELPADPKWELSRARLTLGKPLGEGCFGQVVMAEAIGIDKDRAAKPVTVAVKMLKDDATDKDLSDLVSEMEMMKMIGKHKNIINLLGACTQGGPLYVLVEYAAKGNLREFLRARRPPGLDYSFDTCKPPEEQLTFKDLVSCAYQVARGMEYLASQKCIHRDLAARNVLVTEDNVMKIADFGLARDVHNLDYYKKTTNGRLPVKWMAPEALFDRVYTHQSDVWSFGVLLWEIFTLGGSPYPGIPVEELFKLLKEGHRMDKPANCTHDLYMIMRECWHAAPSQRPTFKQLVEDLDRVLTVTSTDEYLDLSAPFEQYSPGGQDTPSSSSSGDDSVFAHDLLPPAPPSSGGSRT
Sequence of Fibroblast growth factor receptor 1 (P11362 whole entry): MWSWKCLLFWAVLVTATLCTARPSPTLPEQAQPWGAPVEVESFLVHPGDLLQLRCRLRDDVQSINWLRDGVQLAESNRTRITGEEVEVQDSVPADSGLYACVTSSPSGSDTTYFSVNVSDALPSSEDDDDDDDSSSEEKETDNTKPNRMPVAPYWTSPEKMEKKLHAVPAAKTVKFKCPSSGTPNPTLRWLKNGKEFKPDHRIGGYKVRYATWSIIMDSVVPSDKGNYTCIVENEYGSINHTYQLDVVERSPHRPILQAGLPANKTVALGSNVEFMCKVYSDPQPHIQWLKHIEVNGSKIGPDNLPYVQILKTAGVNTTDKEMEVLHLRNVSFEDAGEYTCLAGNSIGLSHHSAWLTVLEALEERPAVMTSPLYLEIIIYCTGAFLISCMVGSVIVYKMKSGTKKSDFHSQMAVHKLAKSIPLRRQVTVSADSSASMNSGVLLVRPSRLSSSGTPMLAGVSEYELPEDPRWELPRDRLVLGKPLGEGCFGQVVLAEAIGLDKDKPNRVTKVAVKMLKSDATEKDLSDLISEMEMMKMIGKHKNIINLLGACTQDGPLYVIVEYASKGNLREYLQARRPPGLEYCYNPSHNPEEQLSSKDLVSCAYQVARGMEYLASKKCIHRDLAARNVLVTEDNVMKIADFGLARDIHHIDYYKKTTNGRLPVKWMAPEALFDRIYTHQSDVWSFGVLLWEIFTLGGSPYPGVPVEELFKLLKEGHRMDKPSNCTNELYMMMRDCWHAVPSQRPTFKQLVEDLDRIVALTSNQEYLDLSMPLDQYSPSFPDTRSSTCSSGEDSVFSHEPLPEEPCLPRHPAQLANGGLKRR

| Structure (SMILES) | IC50 [1] [µM] | IC50 [2] [µM] | IC50 [3] [µM] | IC50 (Hep 3B2) [µM] | IC50 (MDA-MB-453) [µM] | IC50 (NCI-H1581) [µM] | IC50 (Huh-7) [µM] |
| --- | --- | --- | --- | --- | --- | --- | --- |
| COCCNc1cc(NC(=O)N2CCCc3ccc(C=O)nc32)ncc1C#Cc1ccccn1 | > 10 | > 10 | > 10 | – | – | – | – |
| CC(C)Oc1cc(NC(=O)N2CCCc3ccc(C=O)nc32)ncc1C#Cc1cccnc1 | > 10 | > 10 | > 10 | – | – | – | – |
| COc1cc(CCc2cnc(NC(=O)N3CCCc4ccc(C=O)nc43)cc2OC(C)C)cc(OC)c1 | > 10 | > 10 | > 10 | – | – | – | – |
| CC(C)Oc1cc(NC(=O)N2CCCc3ccc(C=O)nc32)ncc1C#Cc1ccncc1 | > 10 | > 10 | > 10 | – | – | – | – |
| COCCNc1cc(NC(=O)N2CCCc3cc(CN4CCN(C)CC4=O)c(C=O)nc32)ncc1C#N [FGF401] | – | – | – | 0.21 | 0.92 | > 3 | 0.0089 |
| CC(C)Oc1cc(NC(=O)N2CCCc3ccc(C=O)nc32)ncc1C#Cc1cncnc1 | > 10 | > 10 | > 10 | – | – | – | – |
| COc1cc(C#Cc2cnc(NC(=O)N3CCCc4cc(CN5CCN(C)CC5=O)c(C=O)nc43)cc2OC(C)C)cc(OC)c1 | > 10 | > 10 | > 10 | 1.34 | 0.466 | > 3 | 0.0658 |
| COCCOc1cc(NC(=O)N2CCCc3ccc(C=O)nc32)ncc1C#Cc1cccnc1 | > 10 | > 10 | > 10 | – | – | – | – |
| O=Cc1ccc2c(n1)N(C(=O)Nc1cc(NC3CC3)c(C#Cc3ccccn3)cn1)CCC2 | > 10 | > 10 | > 10 | – | – | – | – |
| O=Cc1ccc2c(n1)N(C(=O)Nc1cc(F)c(C#Cc3cccnc3)cn1)CCC2 | > 10 | > 10 | > 10 | – | – | – | – |
| CC(C)Oc1cc(NC(=O)N2CCCc3cc(CN4CCN(C)CC4=O)c(C=O)nc32)ncc1C#Cc1ccccn1 | > 10 | > 10 | > 10 | 0.658 | 1.33 | > 3 | 0.00624 |
| COc1cc(C#Cc2cnc(NC(=O)N3CCCc4ccc(C=O)nc43)cc2OC(C)C)cc(OC)c1 | > 10 | > 10 | > 10 | – | – | – | – |
| COC[C@H](C)Nc1cc(NC(=O)N2CCCc3ccc(C=O)nc32)ncc1C#Cc1cccnc1 | > 10 | > 10 | > 10 | – | – | – | – |

Further lines, with some results ahead:

| IC50 [1] [µM] | IC50 [2] [µM] | IC50 [3] [µM] | Structure (SMILES) | IC50 (Hep 3B2) [µM] | IC50 (MDA-MB-453) [µM] | IC50 (NCI-H1581) [µM] | IC50 (Huh-7) [µM] |
| --- | --- | --- | --- | --- | --- | --- | --- |
| > 10 | > 10 | > 10 | CC(C)Oc1cc(NC(=O)N2CCCc3ccc(C=O)nc32)ncc1C#Cc1cncn1C | – | – | – | – |
| > 10 | > 10 | > 10 | CC(C)Oc1cc(NC(=O)N2CCCc3ccc(C=O)nc32)ncc1C#Cc1ccccc1 | – | – | – | – |
| > 10 | > 10 | > 10 | COc1cccc(C#Cc2cnc(NC(=O)N3CCCc4ccc(C=O)nc43)cc2OC(C)C)c1 | – | – | – | – |
| > 10 | > 10 | > 10 | COc1cc(OC)cc(-c2cnc(NC(=O)N3CCCc4ccc(C=O)nc43)cc2OC(C)C)c1 | – | – | – | – |
| > 10 | > 10 | > 10 | COCCNc1cc(NC(=O)N2CCCc3ccc(C=O)nc32)ncc1C#N | – | – | – | – |
| > 10 | > 10 | > 10 | COCCOc1cc(NC(=O)N2CCCc3ccc(C=O)nc32)ncc1C#Cc1ccccn1 | – | – | – | – |
| > 10 | > 10 | > 10 | CC(C)Oc1cc(NC(=O)N2CCCc3ccc(C=O)nc32)ncc1C#Cc1cnccn1 | – | – | – | – |
| > 10 | > 10 | > 10 | COc1cccc(CCc2cnc(NC(=O)N3CCCc4ccc(C=O)nc43)cc2OC(C)C)c1 | – | – | – | – |
| > 10 | > 10 | > 10 | COc1cc(OC)c(Cl)c(C#Cc2cnc(NC(=O)N3CCCc4ccc(C=O)nc43)cc2OC(C)C)c1Cl | – | – | – | – |
| > 10 | > 10 | > 10 | C=CC(=O)Nc1cccc(C)c1Nc1ncc2cc(-c3c(Cl)c(OC)cc(OC)c3Cl)ccc2n1 | 0.55 | 0.12 | > 43.3 | – |
| > 10 | > 10 | > 10 | COCCNc1cc(NC(=O)N2CCCc3ccc(C=O)nc32)ncc1C#Cc1cccnc1 | – | – | – | – |
| > 10 | > 10 | > 10 | COC[C@@H](C)Nc1cc(NC(=O)N2CCCc3ccc(C=O)nc32)ncc1C#Cc1cccnc1 | – | – | – | – |
| > 10 | > 10 | > 10 | O=Cc1ccc2c(n1)N(C(=O)Nc1cc(F)c(C#Cc3ccccn3)cn1)CCC2 | – | – | – | – |
| > 10 | > 10 | > 10 | CC(C)Oc1cc(NC(=O)N2CCCc3ccc(C=O)nc32)ncc1C#Cc1cccc(C#N)c1 | – | – | – | – |
| > 10 | > 10 | > 10 | CC(C)CNc1cc(NC(=O)N2CCCc3ccc(C=O)nc32)ncc1C#Cc1ccccn1 | – | – | – | – |
| > 10 | > 10 | > 10 | O=Cc1ccc2c(n1)N(C(=O)Nc1cc(NC3CCCC3)c(C#Cc3ccccn3)cn1)CCC2 | – | – | – | – |
| > 10 | > 10 | > 10 | COc1cc(CCc2cnc(NC(=O)N3CCCc4cc(CN5CCN(C)CC5=O)c(C=O)nc43)cc2OC(C)C)cc(OC)c1 | 1.45 | 2.26 | > 3 | 0.0149 |
| > 10 | > 10 | > 10 | CC(C)Oc1cc(NC(=O)N2CCCc3ccc(C=O)nc32)ncc1C#Cc1ccccn1 | – | – | – | – |
| > 10 | > 10 | > 10 | CC(C)Oc1cc(NC(=O)N2CCCc3ccc(C=O)nc32)ncc1C#Cc1ccc(C#N)cc1 | – | – | – | – |
